PubChem BioAssay (NCI)
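All cell lines were grown in 96-well plates and treated with compound for 48 hours. GI50 is the concentration that inhibits growth by half. At the TGI there is no net growth.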

Key:
Assay in all cases: DTP human tumour cell line panel, 48 h
786-0 renal = tested on: 786-0 renal
A498 renal = tested on: A498 renal
A549 NSCLC = tested on: A549 NSCLC
ACHN renal = tested on: ACHN renal
BT-549 breast = tested on: BT-549 breast
CAKI-1 renal = tested on: CAKI-1 renal
CCRF-CEM leukemia = tested on: CCRF-CEM leukemia
COLO 205 colon = tested on: COLO 205 colon
DU-145 prostate = tested on: DU-145 prostate
HCC-2998 colon = tested on: HCC-2998 colon
HCT-116 colon = tested on: HCT-116 colon
HCT-15 colon = tested on: HCT-15 colon
HL-60(TB) leukemia = tested on: HL-60(TB) leukemia
HOP-62 NSCLC = tested on: HOP-62 NSCLC
HS 578T breast = tested on: HS 578T breast
HT29 colon = tested on: HT29 colon
IGROV1 ovarian = tested on: IGROV1 ovarian
K-562 leukemia = tested on: K-562 leukemia
KM12 colon = tested on: KM12 colon
LOX IMVI melanoma = tested on: LOX IMVI melanoma
M14 melanoma = tested on: M14 melanoma
MCF7 breast = tested on: MCF7 breast
MDA-MB-231 breast = tested on: MDA-MB-231 breast
MDA-MB-435 = tested on: MDA-MB-435
MOLT-4 leukemia = tested on: MOLT-4 leukemia
NCI-H226 lung = tested on: NCI-H226 lung
NCI-H460 lung = tested on: NCI-H460 lung
NCI-H522 lung = tested on: NCI-H522 lung
NCI/ADR-RES ovarian = tested on: NCI/ADR-RES ovarian
OVCAR-3 ovarian = tested on: OVCAR-3 ovarian
OVCAR-4 ovarian = tested on: OVCAR-4 ovarian
OVCAR-5 ovarian = tested on: OVCAR-5 ovarian
OVCAR-8 ovarian = tested on: OVCAR-8 ovarian
PC-3 prostate = tested on: PC-3 prostate
RPMI-8226 leukemia = tested on: RPMI-8226 leukemia
RXF 393 renal = tested on: RXF 393 renal
SF-268 CNS = tested on: SF-268 CNS
SF-295 CNS = tested on: SF-295 CNS
SF-539 CNS = tested on: SF-539 CNS
SK-MEL-2 melanoma = tested on: SK-MEL-2 melanoma
SK-MEL-28 melanoma = tested on: SK-MEL-28 melanoma
SK-MEL-5 melanoma = tested on: SK-MEL-5 melanoma
SK-OV-3 ovarian = tested on: SK-OV-3 ovarian
SN12C renal = tested on: SN12C renal
SNB-19 CNS = tested on: SNB-19 CNS
SNB-75 CNS = tested on: SNB-75 CNS
SR leukemia = tested on: SR leukemia
SW-620 colon = tested on: SW-620 colon
U251 CNS = tested on: U251 CNS
UACC-257 melanoma = tested on: UACC-257 melanoma
UACC-62 melanoma = tested on: UACC-62 melanoma
UO-31 renal = tested on: UO-31 renal

`COc1ccc(-c2cc(=O)n(-c3nc4ccccc4[nH]3)[nH]2)cc1OC` was tested, and the GI50 (786-0 renal) was 12.4 µM, the TGI (786-0 renal) was greater than 100 µM and the GI50 (A498 renal) was 2330 nM. It also gave a TGI (A498 renal) of 8.72 µM, a GI50 (A549 NSCLC) of 4.72 µM and a TGI (A549 NSCLC) of 81.9 µM. For the same compound, the GI50 (ACHN renal) was 5.72 µM, the TGI (ACHN renal) was greater than 100 µM and the GI50 (BT-549 breast) was 23.7 µM. The TGI (BT-549 breast) was greater than 100 µM, the GI50 (CAKI-1 renal) was 4.79 µM and the TGI (CAKI-1 renal) was greater than 100 µM. The GI50 (CCRF-CEM leukemia) was 2660 nM, the TGI (CCRF-CEM leukemia) was 38.1 µM and the GI50 (COLO 205 colon) was 35.8 µM. The TGI (COLO 205 colon) was greater than 100 µM, the GI50 (DU-145 prostate) was 17.5 µM and the TGI (DU-145 prostate) was greater than 100 µM. For the same compound, the GI50 (HCC-2998 colon) was 16.1 µM, the TGI (HCC-2998 colon) was greater than 100 µM and the GI50 (HCT-116 colon) was 5.83 µM. The TGI (HCT-116 colon) was greater than 100 µM, the GI50 (HCT-15 colon) was 3.7 µM and the TGI (HCT-15 colon) was greater than 100 µM. For the same compound, the GI50 (HL-60(TB) leukemia) was 3.59 µM, the TGI (HL-60(TB) leukemia) was 19.6 µM and the GI50 (HOP-62 NSCLC) was 9.36 µM. The TGI (HOP-62 NSCLC) was greater than 100 µM, the GI50 (HS 578T breast) was 4 µM and the TGI (HS 578T breast) was 66.6 µM. For the same compound, the GI50 (HT29 colon) was 30.5 µM, the TGI (HT29 colon) was greater than 100 µM and the GI50 (IGROV1 ovarian) was 6.08 µM. For the same compound, the TGI (IGROV1 ovarian) was 76.2 µM, the GI50 (K-562 leukemia) was 3.73 µM and the TGI (K-562 leukemia) was 25.7 µM. The GI50 (KM12 colon) was 8.56 µM, the TGI (KM12 colon) was greater than 100 µM and the GI50 (LOX IMVI melanoma) was 6.73 µM. For the same compound, the TGI (LOX IMVI melanoma) was greater than 100 µM, the GI50 (M14 melanoma) was 6.74 µM and the TGI (M14 melanoma) was greater than 100 µM. It also gave a GI50 (MCF7 breast) of 4.74 µM, a TGI (MCF7 breast) greater than 100 µM and a GI50 (MDA-MB-231 breast) of 19.5 µM. For the same compound, the TGI (MDA-MB-231 breast) was greater than 100 µM, the GI50 (MDA-MB-435) was 3.87 µM and the TGI (MDA-MB-435) was greater than 100 µM. For the same compound, the GI50 (MOLT-4 leukemia) was 261 nM, the TGI (MOLT-4 leukemia) was 648 nM and the GI50 (NCI-H226 lung) was 15 µM. It also gave a TGI (NCI-H226 lung) of 67.1 µM, a GI50 (NCI-H460 lung) of 3.91 µM and a TGI (NCI-H460 lung) of 68.3 µM. The GI50 (NCI-H522 lung) was 2960 nM, the TGI (NCI-H522 lung) was 9.14 µM and the GI50 (NCI/ADR-RES ovarian) was 3.57 µM. It also gave a TGI (NCI/ADR-RES ovarian) of 33.3 µM, a GI50 (OVCAR-3 ovarian) of 12.9 µM and a TGI (OVCAR-3 ovarian) greater than 100 µM. It also gave a GI50 (OVCAR-4 ovarian) of 7.9 µM, a TGI (OVCAR-4 ovarian) greater than 100 µM and a GI50 (OVCAR-5 ovarian) of 28.2 µM. It also gave a TGI (OVCAR-5 ovarian) greater than 100 µM, a GI50 (OVCAR-8 ovarian) of 4.43 µM and a TGI (OVCAR-8 ovarian) of 63.5 µM. The GI50 (PC-3 prostate) was 3.8 µM, the TGI (PC-3 prostate) was greater than 100 µM and the GI50 (RPMI-8226 leukemia) was 4.61 µM. For the same compound, the TGI (RPMI-8226 leukemia) was 41.3 µM, the GI50 (RXF 393 renal) was 1240 nM and the TGI (RXF 393 renal) was 11.9 µM. The GI50 (SF-268 CNS) was 10.2 µM, the TGI (SF-268 CNS) was greater than 100 µM and the GI50 (SF-295 CNS) was 1300 nM. It also gave a TGI (SF-295 CNS) of 4.82 µM, a GI50 (SF-539 CNS) of 6.36 µM and a TGI (SF-539 CNS) of 48.9 µM. It also gave a GI50 (SK-MEL-2 melanoma) of 4.77 µM, a TGI (SK-MEL-2 melanoma) of 23.6 µM and a GI50 (SK-MEL-28 melanoma) of 13.9 µM. For the same compound, the TGI (SK-MEL-28 melanoma) was greater than 100 µM, the GI50 (SK-MEL-5 melanoma) was 4.08 µM and the TGI (SK-MEL-5 melanoma) was 34.9 µM. It also gave a GI50 (SK-OV-3 ovarian) of 35.3 µM, a TGI (SK-OV-3 ovarian) greater than 100 µM and a GI50 (SN12C renal) of 8.85 µM. It also gave a TGI (SN12C renal) greater than 100 µM, a GI50 (SNB-19 CNS) of 7.06 µM and a TGI (SNB-19 CNS) greater than 100 µM. The GI50 (SNB-75 CNS) was 4.99 µM, the TGI (SNB-75 CNS) was 81.1 µM and the GI50 (SR leukemia) was 3.85 µM. It also gave a TGI (SR leukemia) greater than 100 µM, a GI50 (SW-620 colon) of 3.41 µM and a TGI (SW-620 colon) greater than 100 µM. It also gave a GI50 (U251 CNS) of 4.2 µM, a TGI (U251 CNS) greater than 100 µM and a GI50 (UACC-257 melanoma) of 6.4 µM. The TGI (UACC-257 melanoma) was 61 µM, the GI50 (UACC-62 melanoma) was 3.79 µM and the TGI (UACC-62 melanoma) was 24.1 µM. The GI50 (UO-31 renal) was 3.2 µM and the TGI (UO-31 renal) was 18.6 µM.
